For 4 molecules, remaining activity results are on record in publication PMC7827406, “Structure–Activity Relationship (SAR) Study of Spautin-1 to Entail the Discovery of Novel NEK4 Inhibitors” (International Journal of Molecular Sciences, 2021).

Holding throughout (assay): biochemical
Design in all cases: Eurofins KinaseProfiler full panel at Km ATP, residual kinase activity (%) relative to DMSO

The target in assay [1] is T1, ALK1(h) (Homo sapiens, UniProt P37023).
T1 construct: gene ACVRL1
Summed up: (§1)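 Two 10 µM single-concentration screens were run: a competition-binding screen, in which DNA-tagged kinase bound to immobilized ligands was quantified by qPCR, and a radiometric activity panel at Km ATP. Each is expressed as residual kinase activity (%).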

The target of assay [2] is BTK(R28H)(h) (Homo sapiens, UniProt Q06187, R28H). An outline of the steps: as §1
Chain of BTK(R28H)(h) (Q06187 whole entry R28H): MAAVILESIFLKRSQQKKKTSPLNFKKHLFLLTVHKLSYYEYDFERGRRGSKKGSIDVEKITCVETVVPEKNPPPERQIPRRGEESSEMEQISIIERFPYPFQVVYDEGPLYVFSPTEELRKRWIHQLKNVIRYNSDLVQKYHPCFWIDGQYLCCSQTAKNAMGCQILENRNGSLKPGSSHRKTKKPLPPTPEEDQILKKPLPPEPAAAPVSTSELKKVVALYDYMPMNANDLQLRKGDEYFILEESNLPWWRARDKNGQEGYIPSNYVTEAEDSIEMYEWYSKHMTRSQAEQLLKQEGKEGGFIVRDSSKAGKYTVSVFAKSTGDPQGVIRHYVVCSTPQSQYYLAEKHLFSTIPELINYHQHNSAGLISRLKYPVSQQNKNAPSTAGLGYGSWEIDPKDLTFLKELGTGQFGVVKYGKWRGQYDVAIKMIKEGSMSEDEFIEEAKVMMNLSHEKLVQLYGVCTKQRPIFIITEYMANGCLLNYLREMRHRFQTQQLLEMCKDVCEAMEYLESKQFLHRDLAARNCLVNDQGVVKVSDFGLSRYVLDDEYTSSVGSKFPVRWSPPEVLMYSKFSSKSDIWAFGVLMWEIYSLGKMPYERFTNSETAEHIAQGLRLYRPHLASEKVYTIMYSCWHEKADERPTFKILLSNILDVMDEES
For assay [3], the target named is T2, EphA1(h) (Homo sapiens, UniProt P21709).
T2 sequence (P21709 1-976): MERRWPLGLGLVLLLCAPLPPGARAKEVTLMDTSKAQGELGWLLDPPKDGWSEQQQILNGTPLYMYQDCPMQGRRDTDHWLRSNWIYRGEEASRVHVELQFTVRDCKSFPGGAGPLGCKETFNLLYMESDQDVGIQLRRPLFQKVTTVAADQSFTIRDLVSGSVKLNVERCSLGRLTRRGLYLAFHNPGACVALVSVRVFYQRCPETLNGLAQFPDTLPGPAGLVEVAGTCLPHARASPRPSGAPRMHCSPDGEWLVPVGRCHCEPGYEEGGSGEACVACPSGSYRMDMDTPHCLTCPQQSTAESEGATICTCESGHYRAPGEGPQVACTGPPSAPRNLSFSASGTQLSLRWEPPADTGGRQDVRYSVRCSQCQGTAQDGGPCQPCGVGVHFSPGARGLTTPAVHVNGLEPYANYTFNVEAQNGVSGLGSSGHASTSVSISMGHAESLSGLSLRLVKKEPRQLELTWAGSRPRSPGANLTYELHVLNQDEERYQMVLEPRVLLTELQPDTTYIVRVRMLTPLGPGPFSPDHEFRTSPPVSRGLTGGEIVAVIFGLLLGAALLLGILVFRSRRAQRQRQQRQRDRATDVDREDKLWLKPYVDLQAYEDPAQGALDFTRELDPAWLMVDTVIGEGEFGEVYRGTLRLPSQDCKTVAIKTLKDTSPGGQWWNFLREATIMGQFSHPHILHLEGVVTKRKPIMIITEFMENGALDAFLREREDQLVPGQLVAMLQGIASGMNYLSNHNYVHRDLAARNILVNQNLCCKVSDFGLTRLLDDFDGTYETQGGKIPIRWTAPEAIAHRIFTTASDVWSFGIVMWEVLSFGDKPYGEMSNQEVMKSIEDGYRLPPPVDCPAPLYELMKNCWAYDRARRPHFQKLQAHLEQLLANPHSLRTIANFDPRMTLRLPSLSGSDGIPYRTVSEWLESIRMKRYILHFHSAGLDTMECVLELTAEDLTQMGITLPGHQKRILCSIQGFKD
An outline of the steps:
as §1

Assay [4] deals with EphA4(h) (Homo sapiens, UniProt P54764). An outline of the steps:
as §1

The target of assay [5] is T3, GCN2(h) (Homo sapiens, UniProt Q9P2K8).
T3 construct: gene EIF2AK4
An outline of the steps: as §1

The target in assay [6] is T4, JNK1α1(h) (Homo sapiens, UniProt P45983).
T4 construct: gene MAPK8; isoform alpha1
T4 sequence (P45983 whole entry, canonical isoform): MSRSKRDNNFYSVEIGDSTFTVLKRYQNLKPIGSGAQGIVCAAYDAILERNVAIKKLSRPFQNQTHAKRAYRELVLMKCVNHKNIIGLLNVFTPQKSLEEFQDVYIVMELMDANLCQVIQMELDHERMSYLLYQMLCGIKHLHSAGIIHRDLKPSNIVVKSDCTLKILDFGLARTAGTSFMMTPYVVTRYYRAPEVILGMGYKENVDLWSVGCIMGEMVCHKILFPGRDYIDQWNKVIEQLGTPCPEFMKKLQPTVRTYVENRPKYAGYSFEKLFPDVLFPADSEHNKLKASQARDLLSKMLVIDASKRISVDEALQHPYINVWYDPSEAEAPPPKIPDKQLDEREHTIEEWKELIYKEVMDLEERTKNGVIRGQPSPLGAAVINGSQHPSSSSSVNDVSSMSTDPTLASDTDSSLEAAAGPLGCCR
An outline of the steps:
as §1

Assay [7] has as its target LIMK2(h) (Homo sapiens, UniProt P53671). Summed up: as §1
Assay [8] addresses Lck(h) activated (Homo sapiens, UniProt P06239). Summed up:
as §1

Assay [9] concerns the target T5, MAPKAP-K3(h) (Homo sapiens, UniProt Q16644).
T5 construct: gene MAPKAPK3
Summed up: as §1

For assay [10], the target named is T6, PRK2(h) (Homo sapiens, UniProt Q16513).
T6 construct: gene PKN2
An outline of the steps: as §1

Assay [11] deals with T7, Rsk1(r) (Rattus norvegicus, UniProt Q63531).
T7 construct: gene Rps6ka1
T7 sequence (Q63531 whole entry): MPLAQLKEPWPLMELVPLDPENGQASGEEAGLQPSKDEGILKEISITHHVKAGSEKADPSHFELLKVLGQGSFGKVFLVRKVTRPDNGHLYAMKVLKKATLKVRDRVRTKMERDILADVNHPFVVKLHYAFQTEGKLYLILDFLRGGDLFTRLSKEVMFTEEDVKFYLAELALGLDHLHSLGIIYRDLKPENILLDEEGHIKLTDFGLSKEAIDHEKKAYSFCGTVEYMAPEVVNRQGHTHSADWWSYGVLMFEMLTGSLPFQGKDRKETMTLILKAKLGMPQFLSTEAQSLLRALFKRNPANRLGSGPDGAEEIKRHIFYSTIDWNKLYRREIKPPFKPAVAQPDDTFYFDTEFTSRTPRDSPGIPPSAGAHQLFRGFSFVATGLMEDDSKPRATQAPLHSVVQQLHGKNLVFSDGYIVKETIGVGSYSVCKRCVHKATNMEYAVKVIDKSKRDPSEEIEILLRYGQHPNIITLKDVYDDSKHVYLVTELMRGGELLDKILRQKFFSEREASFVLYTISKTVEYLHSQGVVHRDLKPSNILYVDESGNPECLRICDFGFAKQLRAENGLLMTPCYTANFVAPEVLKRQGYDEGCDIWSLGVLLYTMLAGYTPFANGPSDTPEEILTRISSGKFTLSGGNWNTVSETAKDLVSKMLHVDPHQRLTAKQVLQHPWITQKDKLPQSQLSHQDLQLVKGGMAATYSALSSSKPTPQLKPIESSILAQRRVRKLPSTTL
Summed up: as §1

Assay [12] deals with WNK2(h) (Homo sapiens, UniProt Q9Y3S1). Summed up: as §1
For assay [13], the target named is T8, Yes(h) (Homo sapiens, UniProt P07947).
T8 construct: gene YES1
T8 sequence (P07947 whole entry): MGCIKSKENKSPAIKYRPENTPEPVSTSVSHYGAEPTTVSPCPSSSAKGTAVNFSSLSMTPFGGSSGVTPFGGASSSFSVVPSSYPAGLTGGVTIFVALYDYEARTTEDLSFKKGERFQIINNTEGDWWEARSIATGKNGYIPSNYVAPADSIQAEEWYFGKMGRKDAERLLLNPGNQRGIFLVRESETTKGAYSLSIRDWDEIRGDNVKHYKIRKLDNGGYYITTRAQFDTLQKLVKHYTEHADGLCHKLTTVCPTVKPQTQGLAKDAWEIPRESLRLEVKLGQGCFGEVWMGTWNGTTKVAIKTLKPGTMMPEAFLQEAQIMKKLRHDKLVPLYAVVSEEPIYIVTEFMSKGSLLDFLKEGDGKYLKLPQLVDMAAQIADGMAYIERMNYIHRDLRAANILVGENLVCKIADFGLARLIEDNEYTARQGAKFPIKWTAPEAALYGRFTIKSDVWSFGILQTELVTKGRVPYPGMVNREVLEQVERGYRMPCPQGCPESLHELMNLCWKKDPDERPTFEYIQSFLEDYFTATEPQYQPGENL
Summed up:
as §1

For assay [14], the target named is T9, cKit(h) (Homo sapiens, UniProt P10721).
T9 construct: gene KIT
T9 sequence (P10721 whole entry): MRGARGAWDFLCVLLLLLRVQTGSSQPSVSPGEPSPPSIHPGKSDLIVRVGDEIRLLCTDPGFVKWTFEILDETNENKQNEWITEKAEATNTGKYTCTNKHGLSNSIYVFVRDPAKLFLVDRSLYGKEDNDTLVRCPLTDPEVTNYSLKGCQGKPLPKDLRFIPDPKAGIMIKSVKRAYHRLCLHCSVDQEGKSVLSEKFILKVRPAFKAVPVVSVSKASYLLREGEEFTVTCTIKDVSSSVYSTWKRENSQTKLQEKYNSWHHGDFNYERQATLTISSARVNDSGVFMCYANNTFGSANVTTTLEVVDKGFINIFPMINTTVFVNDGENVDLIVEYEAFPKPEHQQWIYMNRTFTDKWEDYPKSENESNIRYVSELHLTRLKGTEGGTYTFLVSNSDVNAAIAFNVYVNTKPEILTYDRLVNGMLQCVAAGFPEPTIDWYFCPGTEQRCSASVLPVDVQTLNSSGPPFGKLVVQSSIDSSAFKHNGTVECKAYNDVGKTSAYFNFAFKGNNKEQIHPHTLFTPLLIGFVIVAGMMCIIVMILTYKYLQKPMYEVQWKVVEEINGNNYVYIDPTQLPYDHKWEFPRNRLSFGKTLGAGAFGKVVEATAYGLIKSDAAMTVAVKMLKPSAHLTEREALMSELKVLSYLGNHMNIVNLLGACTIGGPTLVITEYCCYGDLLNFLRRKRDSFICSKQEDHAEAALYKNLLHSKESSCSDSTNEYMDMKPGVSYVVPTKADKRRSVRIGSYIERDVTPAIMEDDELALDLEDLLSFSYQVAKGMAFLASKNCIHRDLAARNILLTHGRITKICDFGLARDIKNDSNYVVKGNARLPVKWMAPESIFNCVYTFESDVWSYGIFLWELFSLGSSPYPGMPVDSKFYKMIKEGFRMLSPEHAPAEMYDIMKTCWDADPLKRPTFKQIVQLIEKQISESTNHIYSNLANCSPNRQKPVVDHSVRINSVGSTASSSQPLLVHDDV
Summed up:
as §1

Where [15] appears, read: read-out: Residual activity (%) Spautin-1 5aa.
Setting [16] is: read-out: Residual activity (%) 5as.
The mark [17] stands for this setting: read-out: Residual activity (%) 5at.
The mark [18] stands for this setting: read-out: Residual activity (%) 5ay.

Where two headings read alike, the source gives them in different places.

Chain of LIMK2(h) (P53671 whole entry): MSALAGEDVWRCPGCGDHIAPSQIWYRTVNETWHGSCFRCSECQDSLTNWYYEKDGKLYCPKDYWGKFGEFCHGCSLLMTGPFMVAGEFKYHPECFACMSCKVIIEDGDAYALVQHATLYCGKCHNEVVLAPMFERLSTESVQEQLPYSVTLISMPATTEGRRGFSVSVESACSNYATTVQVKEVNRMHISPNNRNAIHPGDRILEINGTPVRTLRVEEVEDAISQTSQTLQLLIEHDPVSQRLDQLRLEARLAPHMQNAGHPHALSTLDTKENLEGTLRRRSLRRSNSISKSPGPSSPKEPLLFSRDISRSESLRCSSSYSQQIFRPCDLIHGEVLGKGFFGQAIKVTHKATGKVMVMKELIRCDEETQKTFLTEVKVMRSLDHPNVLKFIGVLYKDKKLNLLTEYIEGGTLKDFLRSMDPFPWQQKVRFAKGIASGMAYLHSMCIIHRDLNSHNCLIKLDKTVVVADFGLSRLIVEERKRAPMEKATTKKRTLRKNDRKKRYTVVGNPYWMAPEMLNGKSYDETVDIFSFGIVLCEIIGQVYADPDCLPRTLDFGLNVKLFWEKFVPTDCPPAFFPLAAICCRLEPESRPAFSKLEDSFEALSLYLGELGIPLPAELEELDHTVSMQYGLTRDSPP
T5 sequence (Q16644 whole entry): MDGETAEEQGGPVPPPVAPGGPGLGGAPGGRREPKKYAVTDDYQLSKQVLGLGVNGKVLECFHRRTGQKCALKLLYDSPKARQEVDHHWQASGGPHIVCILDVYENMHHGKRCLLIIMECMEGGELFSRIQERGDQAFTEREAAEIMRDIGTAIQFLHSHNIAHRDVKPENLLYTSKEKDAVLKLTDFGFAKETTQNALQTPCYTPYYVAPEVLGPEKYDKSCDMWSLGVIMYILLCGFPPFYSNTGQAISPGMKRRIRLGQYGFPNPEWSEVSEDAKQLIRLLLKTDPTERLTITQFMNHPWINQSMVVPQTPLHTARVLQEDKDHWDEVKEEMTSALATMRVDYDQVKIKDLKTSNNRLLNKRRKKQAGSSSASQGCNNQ
T1 sequence (P37023 whole entry): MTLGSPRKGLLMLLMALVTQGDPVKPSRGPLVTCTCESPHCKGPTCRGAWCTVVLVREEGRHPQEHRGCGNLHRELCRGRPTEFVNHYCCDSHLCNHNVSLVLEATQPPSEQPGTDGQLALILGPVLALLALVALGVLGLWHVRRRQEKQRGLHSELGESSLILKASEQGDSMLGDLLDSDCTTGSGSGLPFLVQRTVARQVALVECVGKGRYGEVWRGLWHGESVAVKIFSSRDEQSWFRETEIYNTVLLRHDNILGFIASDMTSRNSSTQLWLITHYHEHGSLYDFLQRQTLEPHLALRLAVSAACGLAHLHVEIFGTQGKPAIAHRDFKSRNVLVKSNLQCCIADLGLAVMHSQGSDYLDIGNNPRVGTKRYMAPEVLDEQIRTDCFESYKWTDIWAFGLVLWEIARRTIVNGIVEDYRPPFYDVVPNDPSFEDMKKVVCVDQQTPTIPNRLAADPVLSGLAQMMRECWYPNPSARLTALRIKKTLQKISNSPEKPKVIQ

Regarding `Fc1ccc(CNc2ncnc3ccc(F)cc23)cc1` [5aa, 6-Fluoro-N-(4-fluorobenzyl)-4-Quinazolinamine], the remaining activity at 10 µM in assay [1] (setting [15]) was 104%; in [2] (setting [15]), 88%; in assay [3] (setting [15]), 93%; in assay [4] (setting [15]) it was 89%; in assay [5] (setting [15]) it was 85%; in assay [6] (setting [15]) it was 98%. Further, the remaining activity at 10 µM was found to be 94% in assay [7] (setting [15]); 93% in [8] (setting [15]); 95% in assay [9] (setting [15]); 108% in [10] (setting [15]); 117% in [11] (setting [15]); 77% in assay [12] (setting [15]). For the same molecule, the remaining activity at 10 µM in assay [13] (setting [15]) stood at 92%; in assay [14] (setting [15]) it was 93%.
`Fc1ccc(CCNc2ncnc3ccc(F)cc23)cc1` [5as, 6-Fluoro-N-[2-(4-Fluorophenyl)Ethyl]-4-Quinazolinamine]: the remaining activity at 10 µM worked out at 85% in assay [1] (setting [16]); 103% in [2] (setting [16]); 66% in [3] (setting [16]); 83% in assay [4] (setting [16]); 85% in assay [5] (setting [16]); 83% in [6] (setting [16]). Further, the remaining activity at 10 µM in assay [7] (setting [16]) came to 87%; in [8] (setting [16]), 100%; in [9] (setting [16]) it was 66%; in assay [10] (setting [16]), 104%; in [11] (setting [16]) it was 130%; in assay [12] (setting [16]), 74%. Besides, the remaining activity at 10 µM was determined as 86% in assay [13] (setting [16]) and 78% in assay [14] (setting [16]).
As for `Fc1ccc2ncnc(NCCc3ccc(Cl)cc3)c2c1` [5at, N-[2-(4-Chlorophenyl)Ethyl]-6-Fluoro-4-Quinazolinamine], the remaining activity at 10 µM in assay [1] (setting [17]) is 93%; in [2] (setting [17]), 101%; in assay [3] (setting [17]), 74%; in assay [4] (setting [17]) it was 80%; in [5] (setting [17]), 97%; in assay [6] (setting [17]), 98%. Also, the remaining activity at 10 µM in assay [7] (setting [17]) came to 84%; in assay [8] (setting [17]), 91%; in assay [9] (setting [17]), 83%; in assay [10] (setting [17]) it was 96%; in assay [11] (setting [17]), 113%; in [12] (setting [17]) it was 76%. Further, the remaining activity at 10 µM amounted to 84% in assay [13] (setting [17]) and 71% in assay [14] (setting [17]).
Regarding `COc1ccc2ncnc(Nc3cccc(F)c3)c2c1` [5ay, N-(3-Fluorophenyl)-6-Methoxy-4-Quinazolinamine], the remaining activity at 10 µM in assay [1] (setting [18]) was determined as 96%; in assay [2] (setting [18]), 103%; in [3] (setting [18]), 61%; in [4] (setting [18]) it was 86%; in [5] (setting [18]), 83%; in assay [6] (setting [18]) it was 94%. In addition, the remaining activity at 10 µM in [7] (setting [18]) turned out to be 103%; in assay [8] (setting [18]), 73%; in assay [9] (setting [18]), 78%; in [10] (setting [18]) it was 95%; in [11] (setting [18]), 129%; in assay [12] (setting [18]) it was 71%. The remaining activity at 10 µM in assay [13] (setting [18]) was 72%; in assay [14] (setting [18]) it was 83%.
